Test results published in PubChem BioAssay (NCI).
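Cells were grown in 96-well plates and exposed to each compound for 48 hours at five concentrations; endpoints were interpolated linearly between bracketing concentrations, or set to the highest concentration if not reached. The concentration for full growth arrest is given as TGI.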

Columns and labels:
Assay in all cases: NCI tumour cell line growth inhibition, 48 h
A498 renal = system: A498 renal
SW-620 colon = system: SW-620 colon
BT-549 breast = system: BT-549 breast
A549 NSCLC = system: A549 NSCLC
UACC-257 melanoma = system: UACC-257 melanoma
COLO 205 colon = system: COLO 205 colon
HL-60(TB) leukemia = system: HL-60(TB) leukemia
CCRF-CEM leukemia = system: CCRF-CEM leukemia
KM12 colon = system: KM12 colon
NCI/ADR-RES ovarian = system: NCI/ADR-RES ovarian

Structure (SMILES) | TGI (A498 renal) [µM] | TGI (SW-620 colon) [µM] | TGI (BT-549 breast) [µM] | TGI (A549 NSCLC) [µM] | TGI (UACC-257 melanoma) [µM] | TGI (COLO 205 colon) [µM] | TGI (HL-60(TB) leukemia) [µM] | TGI (CCRF-CEM leukemia) [µM] | TGI (KM12 colon) [µM] | TGI (NCI/ADR-RES ovarian) [µM]
C1=NCCNCCN=Cc2ccc(cc2)OCc2cccc(n2)COc2ccc1cc2 | > 100 | > 100 | > 100 | > 100 | > 100 | > 100 | > 100 | > 100 | > 100 | > 100
O=C(NCc1cccnc1)NCc1cccnc1 | > 100 | > 100 | > 100 | > 100 | > 100 | > 100 | > 100 |  | > 100 | > 100
Cc1ccccc1N=Nc1ccc(N=Nc2c(O)ccc3ccccc23)c(C)c1 | > 100 | > 100 | > 100 | > 100 | > 100 | > 100 |  |  | > 100 | > 100
CC(=O)OCC(OC(C)=O)C(OC(C)=O)C(C=NN(C(C)=O)S(=O)(=O)c1ccc(/C=C2\NC(=O)NC2=O)cc1)OC(C)=O (stereo not drawn) | > 100 | > 100 | > 100 | > 100 | > 100 | > 100 |  | > 100 |  | > 100
O=c1oc2ccccc2c(Nc2ccc3c(c2)S(=O)(=O)c2ccccc2O3)c1[N+](=O)[O-] |  | > 100 | 70.4 | > 100 | 58.8 | 47.6 | 59.2 | 83.5 | > 100 | > 100
CC1CCCc2c(C#N)c(N)nc(-c3ccc(Cl)cc3)c21 (stereo not drawn) | > 100 | > 100 | > 100 |  | 79.9 | 67.7 | 83.3 | > 100 | > 100 | > 100
Cc1ccc(/C=N/Nc2cnccn2)s1 |  | > 100 | > 100 | > 100 | > 100 | > 100 | > 100 | > 100 | > 100 | > 100
COc1ccc(-c2c(N)n(-c3nc4ccccc4s3)c(=O)c3cc([N+](=O)[O-])ccc23)cc1 | > 100 | > 100 | > 100 | 23.3 | > 100 |  | > 100 | > 100 | > 100 | 78.1
C/C(=N\Nc1nc2ccccc2s1)c1ncccn1 | > 100 | > 69.2 | 3.42 | > 20 |  | 1.19 | > 100 | > 100 | 9.46 | 0.0681
O=C1C2CC=CCC2C(=O)N1n1c(-c2ccccc2)n[nH]c1=O (stereo not drawn) | > 100 | > 100 | > 100 | > 100 | > 100 | > 100 |  | > 100 | > 100 | > 100
CCOC(=O)c1c(N2CCCC2)nsc1Nc1ccccc1 | > 100 | > 100 |  | > 100 | > 100 | > 100 | > 100 | > 100 | > 100 | > 100
